Data published in US10301291B2, “Imidazole derivative having JNK inhibitory activity and use thereof” (SAMJIN PHARMACEUTICAL CO., LTD., priority 2016, dated 2019).

What was measured:
Format in all cases: biochemical
[1] = tested on: various protein kinases; assay: Inhibitory activity against various protein kinases (selectivity, whole panel); details: kinase panel, compound 10 μM
Experimental: (§1) An inhibitory activity of the compound (10 μM) of Example 34 against various protein kinases was measured by means of a kinase profiling service (ICso profiler express) of Reaction Biology Corp., wherein ICso, a concentration at which JNK enzyme activity was inhibited 50%, was also measured by sequentially reducing a concentration of the compound.
IC50 values of the compound of Example 34 with regard to various protein kinases were shown in a following Table 3.

[2] = target: MEK1 (Homo sapiens (Human), UniProt Q02750); assay: Kinase profiling service (Reaction Biology Corp.); details: compound 10 μM
Experimental: as §1

[3] = target: JNK1 (Homo sapiens (Human), UniProt P45983); assay: Kinase profiling service (Reaction Biology Corp.); details: compound 10 μM
Experimental: as §1

[4] = target: GSK3b (Homo sapiens (Human), UniProt P49841); assay: Kinase profiling service (Reaction Biology Corp.); details: compound 10 μM
Experimental: as §1

[5] = target: c-Src (Homo sapiens (Human), UniProt P12931); assay: Kinase profiling service (Reaction Biology Corp.); details: compound 10 μM
Experimental: as §1

[6] = target: PLK1 (Homo sapiens (Human), UniProt P53350); assay: Kinase profiling service (Reaction Biology Corp.); details: compound 10 μM
Experimental: as §1

[7] = target: EGFR (Homo sapiens (Human), UniProt P00533); assay: Kinase profiling service (Reaction Biology Corp.); details: compound 10 μM
Experimental: as §1

[8] = target: FYN (Homo sapiens (Human), UniProt P06241); assay: Kinase profiling service (Reaction Biology Corp.); details: compound 10 μM
Experimental: as §1

[9] = target: mTOR/FRAP1 (Homo sapiens (Human), UniProt P42345); assay: Kinase profiling service (Reaction Biology Corp.); details: compound 10 μM
Experimental: as §1

[10] = target: FMS (Homo sapiens (Human), UniProt P07333); assay: Kinase profiling service (Reaction Biology Corp.); details: compound 10 μM
Experimental: as §1

[11] = Data 1 and Data 2, read-out: % Enzyme Activity (relative to DMSO controls)

Sequence of JNK1 (P45983 whole entry): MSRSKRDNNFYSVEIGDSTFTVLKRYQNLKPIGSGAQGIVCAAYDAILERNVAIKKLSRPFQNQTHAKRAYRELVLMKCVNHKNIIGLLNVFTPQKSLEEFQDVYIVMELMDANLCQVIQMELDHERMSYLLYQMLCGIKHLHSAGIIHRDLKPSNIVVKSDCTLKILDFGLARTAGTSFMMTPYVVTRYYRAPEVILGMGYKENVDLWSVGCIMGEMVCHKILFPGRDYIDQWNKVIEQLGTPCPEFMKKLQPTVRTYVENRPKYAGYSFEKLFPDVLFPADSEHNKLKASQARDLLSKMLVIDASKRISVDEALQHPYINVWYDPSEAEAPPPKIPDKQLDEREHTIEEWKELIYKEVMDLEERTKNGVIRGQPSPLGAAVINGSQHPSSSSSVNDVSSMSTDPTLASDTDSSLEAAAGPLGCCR
Sequence of GSK3b (P49841 whole entry): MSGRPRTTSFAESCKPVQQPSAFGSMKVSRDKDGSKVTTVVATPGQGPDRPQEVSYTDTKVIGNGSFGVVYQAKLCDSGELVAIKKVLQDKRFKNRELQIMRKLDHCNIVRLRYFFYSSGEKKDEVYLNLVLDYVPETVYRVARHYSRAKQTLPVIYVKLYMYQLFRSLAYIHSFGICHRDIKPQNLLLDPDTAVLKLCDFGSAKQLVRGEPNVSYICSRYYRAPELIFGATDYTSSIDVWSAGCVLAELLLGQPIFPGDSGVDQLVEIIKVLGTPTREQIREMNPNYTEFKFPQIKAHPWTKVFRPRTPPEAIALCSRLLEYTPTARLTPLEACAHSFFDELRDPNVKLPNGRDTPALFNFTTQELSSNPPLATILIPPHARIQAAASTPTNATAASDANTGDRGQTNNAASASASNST
Sequence of c-Src (P12931 whole entry, looked up): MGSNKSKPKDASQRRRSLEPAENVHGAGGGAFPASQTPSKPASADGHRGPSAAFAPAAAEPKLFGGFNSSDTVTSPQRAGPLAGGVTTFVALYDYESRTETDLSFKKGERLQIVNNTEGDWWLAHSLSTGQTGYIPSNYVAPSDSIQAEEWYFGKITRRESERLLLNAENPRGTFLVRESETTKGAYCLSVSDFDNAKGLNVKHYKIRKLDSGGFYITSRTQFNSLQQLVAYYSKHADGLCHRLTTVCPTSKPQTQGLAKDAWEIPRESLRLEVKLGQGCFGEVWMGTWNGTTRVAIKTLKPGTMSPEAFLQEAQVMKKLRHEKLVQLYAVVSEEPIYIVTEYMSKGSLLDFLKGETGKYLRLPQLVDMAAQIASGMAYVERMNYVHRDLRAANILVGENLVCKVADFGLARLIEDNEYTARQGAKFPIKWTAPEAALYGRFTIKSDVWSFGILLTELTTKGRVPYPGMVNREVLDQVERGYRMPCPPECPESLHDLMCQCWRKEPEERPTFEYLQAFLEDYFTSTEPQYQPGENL
Sequence of EGFR (P00533 25-1210): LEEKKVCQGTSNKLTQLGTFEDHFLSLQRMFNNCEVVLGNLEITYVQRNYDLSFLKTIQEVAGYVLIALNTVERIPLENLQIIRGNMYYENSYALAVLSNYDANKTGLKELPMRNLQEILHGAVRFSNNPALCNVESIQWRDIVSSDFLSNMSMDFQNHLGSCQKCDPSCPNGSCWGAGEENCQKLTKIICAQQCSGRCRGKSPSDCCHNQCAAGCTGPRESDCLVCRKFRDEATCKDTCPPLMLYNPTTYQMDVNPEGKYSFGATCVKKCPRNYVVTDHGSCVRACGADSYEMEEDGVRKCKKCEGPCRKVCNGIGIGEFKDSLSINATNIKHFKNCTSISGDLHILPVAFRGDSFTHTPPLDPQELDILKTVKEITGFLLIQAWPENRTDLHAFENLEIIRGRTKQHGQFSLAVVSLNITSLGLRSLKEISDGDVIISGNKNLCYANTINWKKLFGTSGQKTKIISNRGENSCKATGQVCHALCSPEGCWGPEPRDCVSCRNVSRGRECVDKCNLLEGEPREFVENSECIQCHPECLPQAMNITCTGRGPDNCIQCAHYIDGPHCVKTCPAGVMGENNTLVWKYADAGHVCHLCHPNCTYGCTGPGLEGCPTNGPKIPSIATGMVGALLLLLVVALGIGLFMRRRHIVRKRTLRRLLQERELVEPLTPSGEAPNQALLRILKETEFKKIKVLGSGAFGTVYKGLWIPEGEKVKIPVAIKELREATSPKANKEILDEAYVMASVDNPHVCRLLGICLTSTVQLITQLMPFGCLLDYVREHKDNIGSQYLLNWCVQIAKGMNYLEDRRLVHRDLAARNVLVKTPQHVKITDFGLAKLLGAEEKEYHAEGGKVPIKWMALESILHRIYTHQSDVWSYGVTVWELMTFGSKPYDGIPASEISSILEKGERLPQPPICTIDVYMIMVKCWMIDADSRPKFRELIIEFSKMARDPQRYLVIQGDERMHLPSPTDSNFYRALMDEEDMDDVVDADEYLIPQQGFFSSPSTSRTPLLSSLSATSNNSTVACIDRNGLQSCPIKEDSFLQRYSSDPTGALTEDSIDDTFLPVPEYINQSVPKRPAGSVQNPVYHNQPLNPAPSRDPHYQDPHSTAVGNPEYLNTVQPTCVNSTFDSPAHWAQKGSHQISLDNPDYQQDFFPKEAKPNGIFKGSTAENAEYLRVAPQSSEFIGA
Sequence of MEK1 (Q02750 whole entry): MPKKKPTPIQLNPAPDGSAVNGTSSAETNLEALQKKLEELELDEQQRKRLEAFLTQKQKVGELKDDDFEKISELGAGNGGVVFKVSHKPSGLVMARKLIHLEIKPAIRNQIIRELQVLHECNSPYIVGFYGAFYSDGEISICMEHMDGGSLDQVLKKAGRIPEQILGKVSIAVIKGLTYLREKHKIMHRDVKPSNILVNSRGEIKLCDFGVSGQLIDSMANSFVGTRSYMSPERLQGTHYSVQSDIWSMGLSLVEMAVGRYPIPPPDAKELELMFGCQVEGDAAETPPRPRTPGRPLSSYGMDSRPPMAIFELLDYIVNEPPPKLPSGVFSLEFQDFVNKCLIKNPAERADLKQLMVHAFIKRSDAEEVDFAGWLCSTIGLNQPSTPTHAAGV
Sequence of FMS (P07333 20-972): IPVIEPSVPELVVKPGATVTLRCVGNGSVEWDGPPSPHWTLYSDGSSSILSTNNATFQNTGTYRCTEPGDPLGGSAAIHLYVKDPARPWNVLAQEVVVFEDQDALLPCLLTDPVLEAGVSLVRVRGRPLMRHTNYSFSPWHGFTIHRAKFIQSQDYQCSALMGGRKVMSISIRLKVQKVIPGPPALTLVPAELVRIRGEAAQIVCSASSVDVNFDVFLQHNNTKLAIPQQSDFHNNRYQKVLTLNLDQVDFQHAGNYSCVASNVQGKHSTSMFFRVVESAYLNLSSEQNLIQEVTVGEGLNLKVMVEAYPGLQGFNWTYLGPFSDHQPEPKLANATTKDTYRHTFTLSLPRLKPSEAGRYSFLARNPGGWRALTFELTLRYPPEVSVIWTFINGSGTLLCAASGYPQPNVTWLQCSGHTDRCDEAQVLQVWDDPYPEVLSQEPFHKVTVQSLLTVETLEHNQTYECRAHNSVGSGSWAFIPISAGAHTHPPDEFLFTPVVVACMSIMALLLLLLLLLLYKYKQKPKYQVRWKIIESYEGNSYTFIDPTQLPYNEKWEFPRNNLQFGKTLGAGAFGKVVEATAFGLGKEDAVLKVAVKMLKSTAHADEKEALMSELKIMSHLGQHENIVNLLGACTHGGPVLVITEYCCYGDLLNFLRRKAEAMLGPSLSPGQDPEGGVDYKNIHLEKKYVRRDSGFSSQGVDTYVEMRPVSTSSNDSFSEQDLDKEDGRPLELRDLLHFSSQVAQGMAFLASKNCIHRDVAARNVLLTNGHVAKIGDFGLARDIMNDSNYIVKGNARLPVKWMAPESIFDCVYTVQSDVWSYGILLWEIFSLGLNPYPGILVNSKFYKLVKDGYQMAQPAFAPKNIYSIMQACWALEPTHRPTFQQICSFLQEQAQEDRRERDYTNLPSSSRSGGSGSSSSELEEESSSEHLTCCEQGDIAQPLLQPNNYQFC
Sequence of PLK1 (P53350 whole entry): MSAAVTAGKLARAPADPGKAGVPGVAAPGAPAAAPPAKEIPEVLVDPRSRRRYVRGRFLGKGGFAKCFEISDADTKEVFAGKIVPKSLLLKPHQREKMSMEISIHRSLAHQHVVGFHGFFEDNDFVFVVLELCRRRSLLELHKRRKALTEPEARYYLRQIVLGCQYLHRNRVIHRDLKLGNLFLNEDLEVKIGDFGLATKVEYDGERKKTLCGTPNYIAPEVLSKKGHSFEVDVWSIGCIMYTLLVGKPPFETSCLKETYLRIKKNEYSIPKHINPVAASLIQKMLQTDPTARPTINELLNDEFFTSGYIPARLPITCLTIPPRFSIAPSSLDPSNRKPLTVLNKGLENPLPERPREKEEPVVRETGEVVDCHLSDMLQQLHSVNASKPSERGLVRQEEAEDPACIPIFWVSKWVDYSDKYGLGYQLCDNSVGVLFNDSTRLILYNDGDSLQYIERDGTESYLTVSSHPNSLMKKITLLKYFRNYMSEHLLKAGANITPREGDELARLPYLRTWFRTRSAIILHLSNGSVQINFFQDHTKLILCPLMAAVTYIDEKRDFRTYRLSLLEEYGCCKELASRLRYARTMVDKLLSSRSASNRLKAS

- % Enzyme Activity (relative to DMSO controls) ([2]; Data 1 and Data 2): 104.84%
- remaining activity at 10 µM [2, 11]: 105%
- % Enzyme Activity (relative to DMSO controls) ([3]; Data 1 and Data 2): 2.84%
- remaining activity at 10 µM [3, 11]: 3.04%
- % Enzyme Activity (relative to DMSO controls) ([4]; Data 1 and Data 2): 29.80%
- remaining activity at 10 µM [4, 11]: 29.9%
- % Enzyme Activity (relative to DMSO controls) ([5]; Data 1 and Data 2): 92.54%
- remaining activity at 10 µM [5, 11]: 94%
- % Enzyme Activity (relative to DMSO controls) ([6]; Data 1 and Data 2): 97.02%
- remaining activity at 10 µM [6, 11]: 98.8%
- % Enzyme Activity (relative to DMSO controls) ([7]; Data 1 and Data 2): 67.11%
- remaining activity at 10 µM [7, 11]: 68.4%
- % Enzyme Activity (relative to DMSO controls) ([8]; Data 1 and Data 2): 94.86%
- remaining activity at 10 µM [8, 11]: 95.6%
- % Enzyme Activity (relative to DMSO controls) ([9]; Data 1 and Data 2): 101.65%
- remaining activity at 10 µM [9, 11]: 105%
- % Enzyme Activity (relative to DMSO controls) ([10]; Data 1 and Data 2): 93.11%
- remaining activity at 10 µM [10, 11]: 93.7%
SMILES: N#CCc1cnc(-c2ccc3ccccc3c2)n1-c1ccnc(NC2CCCN(C(=O)C3CC3)C2)n1 (stereo not shown) [Example 34, 2-(1-(2-(1-(cyclopropanecarbonyl)piperidine-3-ylamino)pyrimidine-4-yl)-2-(naphthalene-2-yl)-1H-imidazole-5-yl)acetonitrile]
- selectivity for JNK1/2/3 over other protein kinases (in words) [1]: selectively inhibiting an activity of JNK1/2/3
